Here are results for eight molecules from publication PMC6042199, “Inhibitory effects against α-glucosidase and α-amylase of the flavonoids-rich extract from Scutellaria baicalensis shoots and interpretation of structure–activity relationship of its eight flavonoids by a refined assign-score method” (Chemistry Central Journal, 2018).

≈ marks a conversion by molar mass, not a printed value.

The target in experiment [1] is T1, porcine pancreatic α-amylase (Sus scrofa, UniProt P00690).
T1 construct: purchased Sigma-Aldrich Co. (St. Louis, MO, USA)
T1 sequence (P00690 16-511): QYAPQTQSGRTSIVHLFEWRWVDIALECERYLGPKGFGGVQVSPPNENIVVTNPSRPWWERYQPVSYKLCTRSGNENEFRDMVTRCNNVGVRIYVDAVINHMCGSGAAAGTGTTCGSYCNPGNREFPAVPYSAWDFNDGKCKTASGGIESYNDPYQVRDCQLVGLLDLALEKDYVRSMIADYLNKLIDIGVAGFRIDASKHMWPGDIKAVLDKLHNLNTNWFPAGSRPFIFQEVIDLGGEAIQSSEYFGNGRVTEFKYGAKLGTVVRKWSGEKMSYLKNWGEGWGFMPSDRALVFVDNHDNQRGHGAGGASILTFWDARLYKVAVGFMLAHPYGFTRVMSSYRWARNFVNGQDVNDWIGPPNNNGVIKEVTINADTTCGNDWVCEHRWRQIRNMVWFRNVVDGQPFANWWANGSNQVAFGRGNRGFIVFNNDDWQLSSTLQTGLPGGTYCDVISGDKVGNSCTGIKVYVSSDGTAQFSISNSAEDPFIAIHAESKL
Kind of experiment: α-amylase inhibitory effect (starch, dinitrosalicylic acid, 540 nm). The experiment is classed as biochemical. The note with it: for Contribution to the overall enzyme inhibitory effect of the extract, α-amylase: Contribution = [Ei/E0] × C × 100; for Inhibitory effects α-amylase (acarbose equivalents): converted into acarbose equivalents; for IC50: mean ± SD of three repeated tests, logarithmic regression. On the procedure:
(§1) All solvents (analytical grade) were bought from Beijing Chemical Factory, and purified water was from a mili-Q system (Millipore, Billerica, MA).
After incubation for 20 min at 37 °C, 300 μL starch solution (1%) in sodium phosphate buffer (0.02 M, pH 6.9 with 6 mM NaCl) was added, and the mixture was re-incubated for 20 min, followed by addition of 0.2 mL dinitrosalicylic acid. The new mixture was then boiled for 5 min and cooled to room temperature. Cooled mixture was diluted by adding 10 mL distilled water, and absorbance was measured at 540 nm using a UV–visible spectrophotometer (Shimadzu UV-1700, Japan). […] IC50 values were calculated by the logarithmic regression analysis.

Experiment [2] deals with yeast α-glucosidase from Saccharomyces cerevisiae. Kind of experiment: α-glucosidase inhibitory effect (pNPG, AUC of absorbance at 405 nm). The experiment is classed as biochemical. The note with it: for Inhibitory effects α-glucosidase (acarbose equivalents): converted into acarbose equivalents; for IC50 α-Glucosidase: mean ± SD of three repeated tests, logarithmic regression. How it is done:
as §1
α-Glucosidase inhibitory effect was assayed as reported by Zhang et al.. […] Then, 30 μL pNPG solution (2 mM pNPG in 0.1 mM phosphate buffer) was added quickly to initiate the enzyme reaction. Absorbance was monitored at 405 nm every 15 min for 2 h using a microplate reader (Tecan infinite 200, Swiss).

The next experiment has as its system α-glucosidase enzyme. On the set-up: method as in doi:10.1007/978-3-642-73461-8_2. The note with it: cited from earlier work.

Regarding `O=C(O)[C@H]1O[C@@H](Oc2cc3oc(-c4ccc(O)cc4)cc(=O)c3c(O)c2O)[C@H](O)[C@@H](O)[C@@H]1O` [Scutellarin, scutellarin], in experiment [1], the “Contribution to the overall enzyme inhibitory effect of the extract, α-amylase” value is reported as 14.80 ± 0.66%; the “Inhibitory effects α-amylase (acarbose equivalents)” value (from here on “Inhibitory effects α-amylase”) amounted to 1.84 ± 0.02 μg acarbose/μg; half-maximal inhibition (IC50) required 799 µM. Moreover, in experiment [2], the “Inhibitory effects α-glucosidase (acarbose equivalents)” value (shortened to “Inhibitory effects α-glucosidase”) was 3.18 ± 0.06 μg acarbose/μg and the “IC50 α-Glucosidase” value turned out to be 313.25 ± 7.28 µg/mL (≈ 677 µM).
Regarding `C[C@H]1O[C@H](O[C@H]2[C@H](O)[C@@H](O)[C@@H](O[C@H]3[C@H](O)[C@@H](O)C(O)O[C@@H]3CO)O[C@@H]2CO)[C@H](O)[C@@H](O)[C@@H]1N[C@H]1C=C(CO)[C@@H](O)[C@H](O)[C@H]1O` (stereo partly drawn) [Acarbose, acarbose, reference compound], the inhibition at 2000 µg/mL in experiment [1] (read-out: inhibition of α-amylase) came out at 69.9%. In addition, the “affinity exceeding that of the normal substrate, factor” value in the experiment with α-glucosidase enzyme is listed as 10^4–10^5. In addition, the “final inhibitory effect against α-glucosidase” value in experiment [2] (at 2 mg/mL) came to 68.66%. Also, the “IC50 α-Glucosidase” value in experiment [2] is 996.02 ± 21.34 µg/mL (≈ 1540 µM).
In the case of `O=c1cc(-c2ccc(O)cc2)oc2cc(O)cc(O)c12` [Apigenin], in experiment [2], the “Inhibitory effects α-glucosidase” value turned out to be 4.31 ± 0.08 μg acarbose/μg and the “IC50 α-Glucosidase” value was determined as 231.13 ± 5.35 µg/mL (≈ 855 µM).
For the molecule `O=c1cc(-c2ccccc2)oc2cc(O)c(O)c(O)c12` [Baicalein, baicalein], in experiment [1], the “Contribution to the overall enzyme inhibitory effect of the extract, α-amylase” value is listed as 23.37 ± 0.98%; the “Inhibitory effects α-amylase” value was 2.07 ± 0.02 μg acarbose/μg; the IC50 is 1240 µM. Moreover, in experiment [2], the “Inhibitory effects α-glucosidase” value is on record as 3.58 ± 0.07 μg acarbose/μg and the “IC50 α-Glucosidase” value came out at 277.94 ± 6.21 µg/mL (≈ 1030 µM).
As for `O=c1cc(-c2ccccc2)oc2cc(O)cc(O)c12` [Chrysin, chrysin], in experiment [1], the “Contribution to the overall enzyme inhibitory effect of the extract, α-amylase” value is listed as 6.91 ± 0.21%; the “Inhibitory effects α-amylase” value is on record as 1.51 ± 0.02 μg acarbose/μg; the 50% inhibitory concentration (IC50) is 1770 µM. For the same molecule, in experiment [2], the “Inhibitory effects α-glucosidase” value came out at 2.36 ± 0.03 μg acarbose/μg and the “IC50 α-Glucosidase” value came to 422.67 ± 9.37 µg/mL (≈ 1660 µM).
As to `O=C(O)[C@H]1O[C@@H](Oc2cc(O)c3c(=O)cc(-c4ccc(O)cc4)oc3c2)[C@H](O)[C@@H](O)[C@@H]1O` [Apigenin-7-O-G, apigenin-7-O-glucuronide], in experiment [1], the “Contribution to the overall enzyme inhibitory effect of the extract, α-amylase” value is 2.74 ± 0.09%; the “Inhibitory effects α-amylase” value is 1.04 ± 0.01 μg acarbose/μg; the IC50 was 1470 µM. Further, in experiment [2], the “Inhibitory effects α-glucosidase” value was determined as 1.83 ± 0.02 μg acarbose/μg and the “IC50 α-Glucosidase” value is 543.28 ± 11.41 µg/mL (≈ 1220 µM).
For `O=C(O)[C@H]1O[C@@H](Oc2cc3oc(-c4ccccc4)cc(=O)c3c(O)c2O)[C@H](O)[C@@H](O)[C@@H]1O` [Baicalin, baicalin], in experiment [1], the “Contribution to the overall enzyme inhibitory effect of the extract, α-amylase” value is reported as 4.95 ± 0.13%; the “Inhibitory effects α-amylase” value came to 1.03 ± 0.01 μg acarbose/μg; the IC50 is 1480 µM. In addition, in experiment [2], the “Inhibitory effects α-glucosidase” value was 1.68 ± 0.02 μg acarbose/μg and the “IC50 α-Glucosidase” value was 591.58 ± 12.21 µg/mL (≈ 1330 µM).
As for `O=C(O)[C@H]1O[C@@H](Oc2cc(O)c3c(=O)cc(-c4ccccc4)oc3c2)[C@H](O)[C@@H](O)[C@@H]1O` [Chrysin-7-O-G, chrysin-7-O-glucuronide], in experiment [1], the “Contribution to the overall enzyme inhibitory effect of the extract, α-amylase” value was determined as 2.63 ± 0.07%; the “Inhibitory effects α-amylase” value amounted to 0.69 ± 0.01 μg acarbose/μg; the IC50 was 2280 µM. In addition, in experiment [2], the “Inhibitory effects α-glucosidase” value amounted to 1.63 ± 0.01 μg acarbose/μg and the “IC50 α-Glucosidase” value stood at 612.13 ± 15.34 µg/mL (≈ 1420 µM).
